The values below come from ChEMBL document CHEMBL1153254, “Vasorelaxant activity of 2-substituted 6-nitro-2H-1-benzopyran-4-carbothioamide K+ channel openers” (Bioorg Med Chem Lett, 1993).

The species entered for assay [1] is Rattus norvegicus. Put plainly: Intrinsic activity in rat isolated aorta. In kind it is functional.
Assay [2] is filed under the species Rattus norvegicus. Put plainly: Negative logarithm of the molar concentration required to relax rat aorta precontracted with 30 mM KCl by 50% of intrinsic activity. In kind it is functional. As to conditions: for EC50: Rattus norvegicus, Aorta.

For `C/N=C(/S)C1=CC2(CCCC2)Oc2ccc([N+](=O)[O-])cc21`, the IA in the assay filed under Rattus norvegicus [1] stood at 77.7%. In the assay listed under Rattus norvegicus [2], the response was half-maximal at 0.0251 nM (EC50). Consider `C/N=C(/S)C1=CC(C)(C)Oc2ccc([N+](=O)[O-])cc21`, for which the IA in the assay filed under Rattus norvegicus [1] is 63.5%. `CCC1C=C(/C(S)=N\C)c2cc([N+](=O)[O-])ccc2O1` (stereo unspecified): the EC50 (in general, the concentration needed to bring the measured effect to its halfway point) in the assay filed under Rattus norvegicus [2] was above 31600 nM. `C/N=C(/S)C1=CC2(CCC2)Oc2ccc([N+](=O)[O-])cc21` returned an IA in the assay listed under Rattus norvegicus [1] of 68.2%. In the assay listed under Rattus norvegicus [2], this compound showed an EC50 of 0.0209 nM. The corresponding values for `C/N=C(/S)C1=CC2(CCCCC2)Oc2ccc([N+](=O)[O-])cc21` are 77.6% and 0.112 nM.

`C/N=C(/S)C1=CC(C)(C)Oc2ccc(C#N)cc21` returned an IA in the assay listed under Rattus norvegicus [1] of 89%. In the assay listed under Rattus norvegicus [1], `CCCC1(C)C=C(/C(S)=N\C)c2cc([N+](=O)[O-])ccc2O1` (stereo unspecified) yielded an IA of 62.6%. In the assay filed under Rattus norvegicus [2], this compound showed an EC50 of 0.017 nM.

Turning to `CCCCC1(C)C=C(/C(S)=N\C)c2cc([N+](=O)[O-])ccc2O1` (stereo unspecified), the IA in the assay listed under Rattus norvegicus [1] stood at 66.5%. Besides, in the assay filed under Rattus norvegicus [2], the EC50 was 40.7 nM. The corresponding values for `CCC1(C)C=C(/C(S)=N\C)c2cc([N+](=O)[O-])ccc2O1` (stereo unspecified) are 75.1% and 0.182 nM.

The compound `C/N=C(/S)C1=CC2(Oc3ccc([N+](=O)[O-])cc31)C1CC3CC(C1)CC2C3` (stereo unspecified) had an IA in the assay filed under Rattus norvegicus [1] of 87.9%. In the assay filed under Rattus norvegicus [2], this compound showed an EC50 of 407 nM. The compound `C/N=C(/S)C1=CC2(CCCCCC2)Oc2ccc([N+](=O)[O-])cc21` showed an IA in the assay filed under Rattus norvegicus [1] of 61.5%. The same compound gave an EC50 in the assay listed under Rattus norvegicus [2] of 47.9 nM. The corresponding values for `CCC1(CC)C=C(/C(S)=N\C)c2cc([N+](=O)[O-])ccc2O1` are 70.3% and 0.372 nM. The corresponding values for `C/N=C(/S)C1=CC(C(C)(C)C)Oc2ccc([N+](=O)[O-])cc21` (stereo unspecified) are 71.7% and 0.398 nM. The corresponding values for `C/N=C(/S)C1=C(O)C(C)(C)Oc2ccc([N+](=O)[O-])cc21` are 93.9% and 1120 nM. Consider `C/N=C(/S)C1c2cc([N+](=O)[O-])ccc2OC(C)(C)C1O` (stereo in doubt; cis), for which, in the assay listed under Rattus norvegicus [1], the IA was found to be 57.9%. Besides, in the assay listed under Rattus norvegicus [2], the “Log EC50” value is recorded as -6.96.

In the assay filed under Rattus norvegicus [1], `C/N=C(/S)C1c2cc([N+](=O)[O-])ccc2OC(C)(C)C1O` (stereo in doubt; trans) had an IA of 73.2%. The “Log EC50” value in the assay filed under Rattus norvegicus [2] is recorded as -6.58. Compound `CC1(C)Oc2ccc(C#N)cc2[C@@H](N2CCCC2=O)[C@@H]1O` [CROMAKALIM] returned an IA in the assay listed under Rattus norvegicus [1] of 74.7%. The same measure, in the same setting: the value for `CC(N/C(=N\C#N)Nc1ccncc1)C(C)(C)C` (stereo unspecified) [PINACIDIL ANHYDROUS] was 91.9%.
